From Sander's compilation of Henry's law constants (doi:10.1093/jxb/48.5.1095) come the findings set out here.

The series is described as follows: Henry solubility constant Hcp at 298.15 K (mol/(m3 Pa)). Particulars: reference: Merk and Riederer (1997).
For `CCC(C)(C)O` [2-methyl-2-butanol], the “Henry solubility constant Hcp” value worked out at 0.7.
To `CCC(C)O` (stereo not given) [2-butanol] belongs 0.83; to `CC(C)CO` [2-methyl-1-propanol], 0.78.
To `CCCO` [1-propanol] belongs 1.5; to `CCO` [ethanol], 1.9.
To `CC(C)O` [2-propanol] belongs 1.2.
As to `CCCCCO` [1-pentanol], the “Henry solubility constant Hcp” value came to 0.77.
With `CCCCC(C)O` (stereo not given) [2-hexanol] the figure was 0.48.
With `CCCC(C)O` (stereo not given) [2-pentanol] the figure was 0.66; with `CCCCCCO` [1-hexanol], 0.58.
